From ChEMBL document CHEMBL2029281, “An improved microwave assisted one-pot synthesis, and biological investigations of some novel aryldiazenyl chromeno fused pyrrolidines” (2012)
Values after ≈ are worked out from the molar mass of the structure shown.

What was measured:
Escherichia coli = assay: Antibacterial activity against Escherichia coli MTCC 443 by macrobroth dilution assay; assay type: functional
Candida albicans = assay: Antifungal activity against Candida albicans MTCC 227 by macrobroth dilution assay; assay type: functional
Salmonella typhi = assay: Antibacterial activity against Salmonella typhi MTCC 98 by macrobroth dilution assay; assay type: functional, Salmonella enterica subsp. enterica serovar Typhi; settings: Salmonella enterica
Streptococcus pneumoniae = assay: Antibacterial activity against Streptococcus pneumoniae MTCC 1936 by macrobroth dilution assay; assay type: functional
Bacillus subtilis = assay: Antibacterial activity against Bacillus subtilis MTCC 441 by macrobroth dilution assay; assay type: functional
Vibrio cholerae = assay: Antibacterial activity against Vibrio cholerae MTCC 3906 by macrobroth dilution assay; assay type: functional
Aspergillus fumigatus = assay: Antifungal activity against Aspergillus fumigatus MTCC 3008 by macrobroth dilution assay; assay type: functional
Clostridium tetani = assay: Antibacterial activity against Clostridium tetani MTCC 449 by macrobroth dilution assay; assay type: functional
[1] = system: Mycobacterium tuberculosis; assay: Growth inhibition of Mycobacterium tuberculosis H37Rv at 250 ug/mL; assay type: functional; settings: read-out: GI
[2] = system: Mycobacterium tuberculosis; assay: Growth inhibition of Mycobacterium tuberculosis H37Rv at >[…]; assay type: functional
[3] = system: Mycobacterium tuberculosis; assay: Growth inhibition of Mycobacterium tuberculosis H37Rv at 0.2 ug/mL; assay type: functional; settings: read-out: GI

Compound | MIC (Escherichia coli) | MIC (Candida albicans) | MIC (Salmonella typhi) | MIC (Streptococcus pneumoniae) | MIC (Bacillus subtilis) | MIC (Vibrio cholerae) | MIC (Aspergillus fumigatus) | MIC (Clostridium tetani) | inhibition of growth at 250 µg/mL [1] | growth inhibition (GI) [2] | inhibition of growth at 0.2 µg/mL [3]
CCCCOC(=O)[C@H]1C[C@@H]2COc3ccc(/N=N/c4ccccc4)cc3[C@@H]2N1CC | 200 µg/mL (≈ 491 µM) | 200 µg/mL (≈ 491 µM) | 100 µg/mL (≈ 245 µM) | > 250 µg/mL | 100 µg/mL (≈ 245 µM) | > 250 µg/mL | > 250 µg/mL | 250 µg/mL (≈ 613 µM) | 68% | – | –
O=C(O)c1cn(C2CC2)c2cc(N3CCNCC3)c(F)cc2c1=O [CIPROFLOXACIN] | 25 µg/mL (≈ 75.4 µM) | – | 25 µg/mL (≈ 75.4 µM) | 50 µg/mL (≈ 151 µM) | – | 25 µg/mL (≈ 75.4 µM) | – | – | – | – | –
O=C(N[C@H](CO)[C@H](O)c1ccc([N+](=O)[O-])cc1)C(Cl)Cl [CHLORAMPHENICOL] | 50 µg/mL (≈ 155 µM) | – | 50 µg/mL (≈ 155 µM) | 50 µg/mL (≈ 155 µM) | 50 µg/mL (≈ 155 µM) | 50 µg/mL (≈ 155 µM) | – | 50 µg/mL (≈ 155 µM) | – | – | –
Cc1ncc([N+](=O)[O-])n1CCO [METRONIDAZOLE] | – | – | – | – | – | – | – | – | – | 99% | –
COC(=O)[C@H]1C[C@@H]2COc3ccc(/N=N/c4ccccc4)cc3[C@@H]2N1C | 200 µg/mL (≈ 569 µM) | 250 µg/mL (≈ 711 µM) | 200 µg/mL (≈ 569 µM) | 125 µg/mL (≈ 356 µM) | 125 µg/mL (≈ 356 µM) | 100 µg/mL (≈ 285 µM) | > 250 µg/mL | > 250 µg/mL | 72% | – | –
CCOC(=O)[C@H]1C[C@@H]2COc3ccc(/N=N/c4ccccc4)cc3[C@@H]2N1CC | > 250 µg/mL | > 250 µg/mL | 250 µg/mL (≈ 659 µM) | 100 µg/mL (≈ 264 µM) | > 250 µg/mL | 250 µg/mL (≈ 659 µM) | 250 µg/mL (≈ 659 µM) | 250 µg/mL (≈ 659 µM) | 98% | – | –
NNC(=O)c1ccncc1 [ISONIAZID] | – | – | – | – | – | – | – | – | – | – | 99%
CCOC(=O)[C@H]1C[C@@H]2COc3ccc(/N=N/c4ccccc4)cc3[C@@H]2N1Cc1ccccc1 | > 250 µg/mL | > 250 µg/mL | > 250 µg/mL | 250 µg/mL (≈ 566 µM) | 250 µg/mL (≈ 566 µM) | 200 µg/mL (≈ 453 µM) | > 250 µg/mL | 200 µg/mL (≈ 453 µM) | 20% | – | –
CCOC(=O)[C@H]1C[C@@H]2COc3ccc(/N=N/c4ccccc4)cc3[C@@H]2N1C | 50 µg/mL (≈ 137 µM) | > 250 µg/mL | 50 µg/mL (≈ 137 µM) | 250 µg/mL (≈ 684 µM) | > 250 µg/mL | 125 µg/mL (≈ 342 µM) | > 250 µg/mL | 200 µg/mL (≈ 547 µM) | 64% | – | –
CCCCOC(=O)[C@H]1C[C@@H]2COc3ccc(/N=N/c4ccccc4)cc3[C@@H]2N1C | 250 µg/mL (≈ 635 µM) | > 250 µg/mL | 250 µg/mL (≈ 635 µM) | 250 µg/mL (≈ 635 µM) | 50 µg/mL (≈ 127 µM) | 200 µg/mL (≈ 508 µM) | > 250 µg/mL | 100 µg/mL (≈ 254 µM) | 25% | – | –
NYSTATIN | – | 100 µg/mL | – | – | – | – | 100 µg/mL | – | – | – | –
COC1=CC(=O)C[C@@H](C)[C@]12Oc1c(Cl)c(OC)cc(OC)c1C2=O [GRISEOFULVIN] | – | 500 µg/mL (≈ 1420 µM) | – | – | – | – | 100 µg/mL (≈ 283 µM) | – | – | – | –
CCN1[C@@H](C(=O)OC)C[C@@H]2COc3ccc(/N=N/c4ccccc4)cc3[C@@H]21 | 200 µg/mL (≈ 547 µM) | > 250 µg/mL | > 250 µg/mL | 200 µg/mL (≈ 547 µM) | 200 µg/mL (≈ 547 µM) | > 250 µg/mL | > 250 µg/mL | > 250 µg/mL | 55% | – | –
CCCOC(=O)[C@H]1C[C@@H]2COc3ccc(/N=N/c4ccccc4)cc3[C@@H]2N1CC | 50 µg/mL (≈ 127 µM) | > 250 µg/mL | 100 µg/mL (≈ 254 µM) | > 250 µg/mL | 200 µg/mL (≈ 508 µM) | 100 µg/mL (≈ 254 µM) | > 250 µg/mL | 200 µg/mL (≈ 508 µM) | 95% | – | –
CC1(C)S[C@@H]2[C@H](NC(=O)[C@H](N)c3ccccc3)C(=O)N2[C@H]1C(=O)O [AMPICILLIN] | 100 µg/mL (≈ 286 µM) | – | 100 µg/mL (≈ 286 µM) | 100 µg/mL (≈ 286 µM) | 250 µg/mL (≈ 715 µM) | 100 µg/mL (≈ 286 µM) | – | 250 µg/mL (≈ 715 µM) | – | – | –
CCn1cc(C(=O)O)c(=O)c2cc(F)c(N3CCNCC3)cc21 [NORFLOXACIN] | 10 µg/mL (≈ 31.3 µM) | – | 10 µg/mL (≈ 31.3 µM) | 10 µg/mL (≈ 31.3 µM) | 100 µg/mL (≈ 313 µM) | 10 µg/mL (≈ 31.3 µM) | – | 50 µg/mL (≈ 157 µM) | – | – | –
CCCOC(=O)[C@H]1C[C@@H]2COc3ccc(/N=N/c4ccccc4)cc3[C@@H]2N1Cc1ccccc1 | 250 µg/mL (≈ 549 µM) | 250 µg/mL (≈ 549 µM) | 250 µg/mL (≈ 549 µM) | 200 µg/mL (≈ 439 µM) | 250 µg/mL (≈ 549 µM) | 100 µg/mL (≈ 220 µM) | > 250 µg/mL | 250 µg/mL (≈ 549 µM) | 84% | – | –
CCCCOC(=O)[C@H]1C[C@@H]2COc3ccc(/N=N/c4ccccc4)cc3[C@@H]2N1Cc1ccccc1 | 200 µg/mL (≈ 426 µM) | > 250 µg/mL | 100 µg/mL (≈ 213 µM) | 25 µg/mL (≈ 53.2 µM) | 250 µg/mL (≈ 532 µM) | 250 µg/mL (≈ 532 µM) | > 250 µg/mL | > 250 µg/mL | 90% | – | –
CCCOC(=O)[C@H]1C[C@@H]2COc3ccc(/N=N/c4ccccc4)cc3[C@@H]2N1C | 250 µg/mL (≈ 659 µM) | > 250 µg/mL | 250 µg/mL (≈ 659 µM) | 250 µg/mL (≈ 659 µM) | 250 µg/mL (≈ 659 µM) | 250 µg/mL (≈ 659 µM) | > 250 µg/mL | > 250 µg/mL | 41% | – | –
COC(=O)[C@H]1C[C@@H]2COc3ccc(/N=N/c4ccccc4)cc3[C@@H]2N1Cc1ccccc1 | 125 µg/mL (≈ 292 µM) | 200 µg/mL (≈ 468 µM) | 250 µg/mL (≈ 585 µM) | 250 µg/mL (≈ 585 µM) | 250 µg/mL (≈ 585 µM) | > 250 µg/mL | > 250 µg/mL | 200 µg/mL (≈ 468 µM) | 87% | – | –
